Data reported in patent publication US20020035061A1, “COMPOSITIONS AND METHODS FOR TREATING INFECTIONS USING CATIONIC PEPTIDES ALONE OR IN COMBINATION WITH ANTIBIOTICS” (priority 1996, published 2002).
Like-named read-outs stand apart in the source and are kept apart here.

Experiments:
Assay type in all cases: cell-based
A. calcoaceticus = test system: A. calcoaceticus
E. cloacae = test system: E. cloacae
E. coli = test system: E. coli
E. faecalis = test system: E. faecalis
K. pneumoniae = test system: K. pneumoniae
P. aeruginosa = test system: P. aeruginosa
S. aureus = test system: S. aureus
S. epidermidis = test system: S. epidermidis
S. maltophilia = test system: S. maltophilia
S. marcescens = test system: S. marcescens

Row | Sequence | MIC (A. calcoaceticus; A. calcoaceticus AC002) [µg/mL] | MIC (E. cloacae; E. cloacae ECL007) [µg/mL] | MIC (E. coli; E. coli ECO005) [µg/mL] | MIC (E. faecalis; E. faecalis EFS001) [µg/mL] | MIC (E. faecalis; E. faecalis EFS008) [µg/mL] | MIC (K. pneumoniae; K. pneumoniae KP001) [µg/mL] | MIC (P. aeruginosa; P. aeruginosa PA004) [µg/mL] | MIC (S. aureus; S. aureus SA014) [µg/mL] | MIC (S. aureus; S. aureus SA093) [µg/mL] | MIC (S. epidermidis; S. epidermidis SE010) [µg/mL] | MIC (S. maltophilia; S. maltophilia SMA002) [µg/mL] | MIC (S. marcescens; S. marcescens SMS003) [µg/mL] | MIC (A. calcoaceticus; A. calcoaceticus strain AC002) [µg/mL] | MIC (E. cloacae; E. cloacae strain ECL007) [µg/mL] | MIC (E. coli; E. coli strain ECO005) [µg/mL] | MIC (E. faecalis; E. faecalis strain EFS008) [µg/mL] | MIC (K. pneumoniae; K. pneumoniae strain KP001) [µg/mL] | MIC (P. aeruginosa; P. aeruginosa strain PA004) [µg/mL] | MIC (S. epidermidis; S. epidermidis strain SE010) [µg/mL] | MIC (S. marcescens; S. marcescens strain SMS003) [µg/mL] | also measured
1 | ILRWPWWPWRAK [MBI 11H11CN] | 4 | >128 | 16 | 2 | 8 | 16 | >128 | 4 | 1 | 4 | 64 | >128 | – | – | – | – | – | – | – | – | –
2 | ILKKNPNNPNRRK [MBI 11CNY1] | – | >64 | >64 | – | – | >64 | >64 | – | – | 128 | >64 | >64 | – | – | – | – | – | – | – | – | MIC (A. calcoaceticus; A. calcoaceticus AC001): >64 µg/mL; MIC (E. faecalis; E. faecalis EFS004): >64 µg/mL; MIC (S. aureus; S. aureus SA006): 16 µg/mL
3 | KRRWVWWVWRLI [MBI 11F4CNR] | – | – | – | – | – | – | – | – | – | – | – | – | 16 | 32 | 32 | 32 | 32 | 64 | 8 | >128 | MIC (S. aureus; S. aureus strain SA093): 8 µg/mL; MIC (S. maltophilia; S. maltophilia strain SMA002): 32 µg/mL
4 | ILKKNPNNPNRK [MBI 11B4ACN] | – | – | – | – | – | – | – | – | – | – | – | – | 4 | >128 | 32 | 64 | 32 | >128 | 8 | >128 | MIC (S. aureus; S. aureus strain SA008): 1 µg/mL; MIC (S. maltophilia; S. maltophilia strain SMA002): 64 µg/mL
5 | ILRWPWWPWRRKMILKKAGS [MBI 11B17CN] | – | – | – | – | – | – | – | – | – | – | – | – | 2 | >128 | 8 | 4 | 16 | >128 | 4 | >128 | MIC (S. aureus; S. aureus strain SA093): 2 µg/mL; MIC (S. maltophilia; S. maltophilia strain SMA002): 32 µg/mL
6 | RWWWPWRRK [MBI 11G28CN] | 2 | >128 | 8 | 4 | 32 | 64 | 128 | 4 | 1 | 4 | 32 | >128 | – | – | – | – | – | – | – | – | –
7 | ILRNPNNPNRRK [MBI 11B7ACN] | – | – | – | – | – | – | – | – | – | – | – | – | – | >128 | – | 8 | – | – | 4 | >128 | MIC (A. calcoaceticus; A. calcoaceticus strain AC002, listed as MBI 11B7 ACN): 2 µg/mL; MIC (E. coli; E. coli strain ECO005, listed as MBI 11B7 ACN): 8 µg/mL; MIC (E. faecalis; E. faecalis strain EFS001, listed as MBI 11B7 ACN): 1 µg/mL; MIC (K. pneumoniae; K. pneumoniae strain KP001, listed as MBI 11B7 ACN): 8 µg/mL; MIC (P. aeruginosa; P. aeruginosa strain PA004, listed as MBI 11B7 ACN): 128 µg/mL; MIC (S. aureus; S. aureus strain SA014): 2 µg/mL; MIC (S. aureus; S. aureus strain SA093): 1 µg/mL; MIC (S. maltophilia; S. maltophilia strain SMA002, listed as MBI 11B7 ACN): 32 µg/mL
8 | ILKKWPWWPWRRK [MBI 11ACN] | 2 | >128 | 16 | – | 64 | 16 | >128 | 8 | – | 4 | 64 | >128 | – | – | – | – | – | – | – | – | MIC (E. faecalis; E. faecalis EFS004): 8 µg/mL
9 | ILRWPAWPWRRK [MBI 11H06CN] | 8 | >128 | 16 | 2 | 16 | 64 | >128 | 8 | 1 | 8 | 64 | >128 | – | – | – | – | – | – | – | – | –
10 | ILRWPWWPWWPWRRK [MBI 11A9CN] | – | – | – | – | – | – | – | – | – | – | – | – | 8 | 128 | 32 | 8 | 32 | 128 | 4 | >128 | MIC (E. faecalis; E. faecalis strain EFS001): 2 µg/mL; MIC (S. aureus; S. aureus strain SA014): 4 µg/mL; MIC (S. aureus; S. aureus strain SA093): 2 µg/mL; MIC (S. maltophilia; S. maltophilia strain SMA002): 32 µg/mL
11 | ILRRWVWWVWRRK [MBI 11F5CN] | 4 | 128 | 8 | 2 | 8 | 8 | 32 | 4 | 2 | 4 | 16 | >128 | – | – | – | – | – | – | – | – | –
12 | ILKKNPNNPRRK [MBI 11G6ACN] | – | – | – | – | – | – | – | – | – | – | – | – | 4 | >128 | 64 | >128 | >128 | >128 | 32 | >128 | MIC (S. aureus; S. aureus strain SA014): 64 µg/mL; MIC (S. maltophilia; S. maltophilia strain SMA002): >128 µg/mL
13 | WPWWPWRRK [MBI 11G27CN] | 2 | >128 | 16 | 8 | 32 | 32 | 128 | 4 | 1 | 8 | 32 | >128 | – | – | – | – | – | – | – | – | –
14 | ILRWPWWPWRRKDMILKKAGS [MBI 11B18CN] | – | – | – | – | – | – | – | – | – | – | – | – | 2 | >128 | 32 | 4 | 32 | >128 | 4 | >128 | MIC (S. aureus; S. aureus strain SA093): 2 µg/mL; MIC (S. maltophilia; S. maltophilia strain SMA002): 64 µg/mL
15 | ILRWPWAPWRRK [MBI 11H07CN] | 8 | >128 | 32 | 4 | 16 | 128 | >128 | 8 | 2 | 16 | 128 | >128 | – | – | – | – | – | – | – | – | –
16 | CLRWPWWPWRRK [MBI 11D19CN] | 8 | >128 | 32 | 4 | 64 | 32 | 128 | 4 | 2 | 8 | 64 | >128 | – | – | – | – | – | – | – | – | –
